The text below walks through data of patent US9981970B2, “Bicyclic ureas and thiadiazolidine-1, 1-dioxides as CETP inhibitors” (Merck Sharp & Dohme Corp., priority 2013, dated 2018).

Where two headings read alike, the source gives them in different places.

The conditions of assay [1]: patients on anacetrapib with baseline statin therapy compared with patients treated with just a statin; cited from earlier work.
The target in assay [2] is T1, endogenous CETP from serum (Homo sapiens, UniProt P11597).
T1 construct: yielding a concentration of approximately 15 nM endogenous CETP in the assay; from tissue; host or cells: human serum
T1 sequence (P11597 18-493): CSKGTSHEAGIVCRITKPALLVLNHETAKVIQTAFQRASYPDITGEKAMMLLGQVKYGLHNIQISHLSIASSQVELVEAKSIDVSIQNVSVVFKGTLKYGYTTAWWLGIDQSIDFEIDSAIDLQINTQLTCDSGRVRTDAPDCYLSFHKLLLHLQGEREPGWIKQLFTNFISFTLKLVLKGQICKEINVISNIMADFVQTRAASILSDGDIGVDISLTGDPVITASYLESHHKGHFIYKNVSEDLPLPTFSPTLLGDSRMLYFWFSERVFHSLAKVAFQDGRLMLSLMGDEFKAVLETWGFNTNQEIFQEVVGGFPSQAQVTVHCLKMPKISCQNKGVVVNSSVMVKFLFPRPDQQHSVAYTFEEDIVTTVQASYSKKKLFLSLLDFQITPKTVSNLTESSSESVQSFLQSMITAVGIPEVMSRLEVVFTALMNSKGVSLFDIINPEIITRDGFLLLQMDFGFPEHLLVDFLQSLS
The assay can be described thus: RTA assay in 95% human serum (in vitro radioactive assay of CETP-catalyzed CE and TG transfer). Format: biochemical. An excerpt:
In Vitro Radioactive Assays of CETP-Catalyzed CE and TG Transfer (RTA Assay)
Reagents and sources are: [3H] cholesteryl oleate (GE #TRK.886), [3H] Triolein (Perkin-Elmer NET-431), Butylated hydroxyl toluene (Aldrich, #D4740-4), DOPC (Sigma, # P6354), Sodium Bromide (Fisher scientific #S255-500), PEG 8000 (Fisher, #BP233-1), and human HDL (Intracel Corp #RP-036).
Both assays measure the transfer of [3H] cholesteryl oleate or [3H] triolein from exogenous LDL to HDL.
Radiolabeled donor particles are generated by first combining 100 μl of 200 μM butylated hydroxyl toluene in CHCl3, 216 μL of 21.57 mM DOPC in EtOH, and either 500 μCi [3H]-triolein (Perkin Elmer #NET-431) or 500 μCi [3H]-cholesteryl oleate (GE #TRK886) in a glass tube. Reagents are mixed, dried under nitrogen, and then resuspended in 2 mL of 50 mM Tris, 27 μM EDTA at pH 7.4. After a brief vortex, the solution is sonicated until clear and mixed with 20 mL of fresh human serum. The mixture is incubated overnight at 37° C. The [3H] labeled LDL substrate is separated at 1.063 g/ml density by sequential ultracentrifugal flotation in NaBr according to the method of Havel, Eder, et al., 1955, and Chapman, Goldstein, et al., 1981. Once isolated the particles are dialyzed 3× in CETP buffer (50 mM Tris, pH 7.4, 100 mM NaCl, 1 mM EDTA). Human HDL is purchased from Intracel and used as the acceptor particles.
Transfer assays are performed in a 96-well v-bottom polypropylene plate. For the RTA using recombinant CETP (2% RTA), an assay cocktail is prepared with the final concentrations 128 μg/mL HDL, 20 nM rCETP, 2% human serum, and 1×CETP buffer. 1 μL of each test compound diluted in DMSO is added to 47 μL of assay cocktail per well and incubated at 37° C. for 1 hour. To initiate the transfer reaction, 2 μL radiolabeled LDL is added. After an additional 60 min of incubation at 37° C., the transfer action is terminated by precipitation of LDL with an equal volume of 20% WN PEG 8000. The plates are centrifuged at 2000 rpm for 30 minutes at 4° C. A 40 μL aliquot of the HDL-containing supernatant is transferred to a Packard Optiplate™ with 200 μL of MicroScint™ 20. After mixing, plates are counted by liquid scintillation. Counts present in the supernatant for blanks (wells containing only HDL acceptor, CETP buffer and DMSO) are subtracted from those containing test compounds and used to correct for non-specific transfer.
This is then combined with HDL and CETP buffer and the reaction proceeds as above and is terminated as described.
Comparison of the counts of samples with inhibitors to an uninhibited (DMSO only) positive control yield a percent inhibition. A plot of percent inhibition vs. log of inhibitor concentration, fit to a Sigmoidal 4 parameter equation is used to calculate IC50.
Starting materials are commercially available or are made using known procedures or as shown below. The examples may be synthesized according to the general schemes provided below and by using the synthetic intermediates that are described. […] When compounds of Formula I are mentioned herein, such compounds include compounds defined generically by Formula I and also the specific examples disclosed herein.

Setting [3] is: Table 1, data generally obtained using the RTA assay in 95% human serum, read-out: IC50.

Take `COc1cc(F)c(C(C)C)cc1-c1ccc(C(F)(F)F)cc1CN1C(=O)O[C@H](c2cc(C(F)(F)F)cc(C(F)(F)F)c2)[C@@H]1C` [anacetrapib]: in assay [1], the “decrease of LDL-C” value was 40% and the “increase of HDL-C” value was 138%.
With `COc1ccc([C@H]2[C@H](C)C(=O)N[C@@H]2C)cc1-c1ccc(C(F)(F)F)cc1[C@@H]1CC[C@H]2[C@@H](c3cc(C(F)(F)F)cc(C(F)(F)F)c3)NC(=O)N12` [Example 15, (1R,5S,7aS)-1-[3,5-bis(trifluoromethyl)phenyl]-5-{5′-[(2R,3R,4S)-2,4-dimethyl-5-oxopyrrolidin-3-yl]-2′-methoxy-4-(trifluoromethyl)biphenyl-2-yl}hexahydro-3H-pyrrolo[1,2-c]imidazol-3-one], the IC50 in assay [2] (setting [3]) worked out at 1740 nM.
Regarding `COc1ccc(CCC(=O)O)cc1-c1ccc(C(F)(F)F)cc1[C@@H]1CC[C@H]2[C@@H](c3cc(C(F)(F)F)cc(C(F)(F)F)c3)N(C)C(=O)N12` [Example 10, 3-[2′-{(1R,5S,7aS)-1-[3,5-bis(trifluoromethyl)phenyl]-2-methyl-3-oxohexahydro-1H-pyrrolo[1,2-c]imidazol-5-yl}-6-methoxy-4′-(trifluoromethyl)biphenyl-3-yl]propanoic acid], the IC50 in assay [2] (setting [3]) worked out at 2950 nM.
For the molecule `COc1ccc(-c2cccnc2C)cc1-c1ccc(C(F)(F)F)cc1[C@@H]1CC[C@H]2[C@@H](c3cc(C(F)(F)F)cc(C(F)(F)F)c3)NC(=O)N12` [Example 13, (1R,5S,7aS)-1-[3,5-bis(trifluoromethyl)phenyl]-5-[2′-methoxy-5′-(2-methylpyridin-3-yl)-4-(trifluoromethyl)biphenyl-2-yl]hexahydro-3H-pyrrolo[1,2-c]imidazol-3-one], the IC50 in assay [2] (setting [3]) came to 795 nM.
In the case of `COc1ncc(-c2ccc(C(=O)O)cc2C)cc1-c1ccc(C(F)(F)F)cc1[C@@H]1CC[C@H]2[C@@H](c3ccnc(C(F)(F)F)c3)NC(=O)N12` [Example 18, 4-{6-methoxy-5-[2-{(1R,5S,7aS)-3-oxo-1-[2-(trifluoromethyl)pyridin-4-yl]hexahydro-1H-pyrrolo[1,2-c]imidazol-5-yl}-4-(trifluoromethyl)phenyl]pyridin-3-yl}-3-methylbenzoic acid], in assay [2] (setting [3]), the IC50 turned out to be 5040 nM.
Consider `COc1ncc(-c2ccc(C(=O)O)cc2C)cc1-c1ccc(C(F)(F)F)cc1[C@@H]1CC[C@H]2[C@@H](c3cc(F)cc(C(F)(F)F)c3)NS(=O)(=O)N12` [Example 24, 4-{5-[2-{(3R,3aS,6S)-3-[3-fluoro-5-(trifluoromethyl)phenyl]-1,1-dioxidohexahydropyrrolo[1,2-b][1,2,5]thiadiazol-6-yl}-4-(trifluoromethyl)phenyl]-6-methoxypyridin-3-yl}-3-methylbenzoic acid], for which the IC50 in assay [2] (setting [3]) stood at 1260 nM.
Same read-out and setting: the same measure for `COc1ccc(-c2ccc(C(=O)O)cc2C)cc1-c1ccc(C(F)(F)F)cc1[C@@H]1CC[C@H]2[C@@H](c3cc(F)cc(C(F)(F)F)c3)NC(=O)N12` [Example 16, 2″-{(1R,5S,7aS)-1-[3-fluoro-5-(trifluoromethyl)phenyl]-3-oxohexahydro-1H-pyrrolo[1,2-c]imidazol-5-yl}-4′-methoxy-2-methyl-4″-(trifluoromethyl)-1,1′:3′,1″-terphenyl-4-carboxylic acid]: 1510 nM.
In the case of `COc1ncc(-c2ccc(C(=O)NC3(C#N)CC3)cc2C)cc1-c1ccc(C(F)(F)F)cc1[C@@H]1CC[C@H]2[C@@H](c3cc(C(F)(F)F)cc(C(F)(F)F)c3)NC(=O)N12` [Example 2, 4-{5-[2-{(1R,5S,7aS)-1-[3,5-bis(trifluoromethyl)phenyl]-3-oxohexahydro-1H-pyrrolo[1,2-c]imidazol-5-yl}-4-(trifluoromethyl)phenyl]-6-methoxypyridin-3-yl}-N-(1-cyanocyclopropyl)-3-methylbenzamide], the IC50 in assay [2] (RTA assay in 95% human serum, endogenous CETP, read-out: RTA (95% HS)) turned out to be 276 nM.
